{"source": "patent US5352810A", "about": "“Phosphatidylinositol analogues, inhibitors of phosphatidylinositol specific phospholipase C” (Mediolanum Farmaceutici S.p.A., priority 1991, dated 1994)", "key": {"[1]": {"test_system": "K562 erythroleukaemia cell line", "test": "In vitro antitumoral activity / toxicity assay (propidium iodide, flow cytofluorometry)", "assay_type": "cell-based", "details": "FIG. 1", "experimental": "The compound described in example 1.3 and named 309 bis was tested to evaluate the \"in vitro\" antitumoral activity according to the following method:\nCell cultures. K562 erythroleukaemia cell line was obtained from ATCC (Rockville, Md., USA). Cell culture media and plastic were from Flow (U.K.). Cells were grown in RPMI 1640 medium supplemented with 10% (v/v) heat-inactivated foetal calf serum, 2mM L-glutamine, 2.0 g.1^-1 bicarbonate, and 10 mM Hepes (4-(2-hydroxyethyl)-1-piperazine ethanesulphonic acid) in humidified atmosphere with 5% (v/v) CO2 at 37° C. Coltures were performed without the addition of any antibiotics, and were routinely checked for the presence of Mycoplasma infection.\nToxicity assay. Cells were washed and suspended to the final concentration of 10^6 ml^-1 in a medium containing 5% (v/v) FCS. The chemical compounds under evaluation were diluted from a 2 mM stock solution containing 5% (v/v) FCS and 0.2% (v/v) dimethylsulphoxide (DMSO, FCS and medium were added in sequence to facilitate solubility); when necessary, solutions were treated with short sonical pulses. 0.2% DMSO was added to controls. […] The 560-580 nm fluorescence of the death cells, excited at 490-495 nm, was monitored on a FACS-analizer flow cytofluorometer (Becton Dickinson, Calif., USA) using a Consort 30 programme. […]"}, "[2]": {"target": "phosphatidylinositol-specific phospholipase C (PLC)", "test": "Inhibition of phosphatidylinositol-specific phospholipase C enzymatic activity (hydrolysis of [3H]phosphatidylinositol)", "assay_type": "biochemical", "details": "soluble fraction of human platelets; 20 min preincubation, 15 min reaction, pH 6.5, 37° C.; read-out: IC50 (Inhibitor concentration inhibiting 50% of the enzyme)", "experimental": "The following experiments were carried out with the compounds prepared in the Examples 1-5 above mentioned in order to evaluate their ability to inhibit the enzymatic activity of phosphatidylinositol-specific phospholipase C (PLC).\nThe test were carried out according to the following operations.\n1. Preparation of phosphatidylinositol-specific phospholipase C enzyme from human platelets.\nAs the starting material human plasma enriched with human platelets was used.\nPlatelets were precipitated from plasma by centrifugation at 0°-4° C. for 30 minutes at 2,500×g. The platelets precipitate was washed twice by using a buffer \"A\" Hepes pH 7 (137 mM NaCl, 20 mM Hepes; 1.0 mM EGTA; 5 mM glucose) and successively recovered by using buffer \"B\" Hepes (10 mM Hepes, pH 7).\nThe platelets were sonicated and centrifuged at 3,200×g for 20 minutes at 0-4° C. The surnatant consisting of platelets homogenate, was separated and ultracentrifuged at 105,000×g for 1 hour, thereby obtaining two fractions: the soluble one and the particulate one, both containing PLC.\n2. Preparation of phosphatidylinositol substrate.\nThe substrate marked for PLC, L-3-phosphatidyl [2-^3 H] inositol, cod. […]\nThe product was purified by HPLC and had the following characteristics: specific activity 20 Ci/mMol (22.6 mCi/mg), radioactivity concentration 50μCi/ml ([…]=1.85 ×10^6 Bq); the hydroxyl groups 1 and 2 of glycerol resulted esterified with stearic acid and arachidonic acid in 90% of the product.\n1 ml of a chloroform solution containing L-phosphatidylinositol (10 mg/ml sigma cod P 25/7 containing mainly stearic acid and arachidonic acid) was taken. […] Marked phosphatidylinositol was added to 9 ml of said solution in such an amount that in 300μl of the solution (2.0× 10^-4 M) thus obtained, 130,078±1316 Dpm were recorded. […]\nIn order to determine the inhibitory activity of the compounds of the present invention, said compounds and the enzyme were preincubated for 20 minutes. […] A suitable aliquot of the aqueous phase was utilized for the scintillatot readings."}}, "data": [{"smiles": "CCCCCCCCCCCCCCCCCCSP(=O)(O)O[C@@H]1[C@H](O)[C@H](O)[C@@H](O)[C@H](O)[C@H]1O", "note": "(relative stereo) [Example 1.3, 1-O-(OCTADECYLPHOSPHOTHIOLYL)-MYO-INOSITOL]", "values": [{"measurement": "% toxicity (percentage of killed cells), maximum", "setting": "[1]; concentration 10^-3 -3×10^-3 M", "value": "~100", "unit": "%"}, {"measurement": "antitumoral activity on erythroleukaemic cells", "setting": "[1]; concentration 10^-5 M", "value": "shows antitumoral activity"}]}, {"smiles": "CCCCCCCCCCCCCCSP(=O)(O)O[C@@H]1[C@H](O)[C@H](O)[C@@H](O)[C@H](O)[C@H]1O", "note": "(relative stereo) [Example 3.3, 1-O-(TETRADECYLPHOSPHOTHIOLYL)-MYO-INOSITOL]", "values": [{"measurement": "IC50", "setting": "[2]", "value": "~100", "unit": "µM"}]}, {"smiles": "CCCCCCCCCCCCSP(=O)(O)O[C@@H]1[C@H](O)[C@H](O)[C@@H](O)[C@H](O)[C@H]1O", "note": "(relative stereo) [Example 4.3, 1-O-(DODECYLPHOSPHOTHIOLYL)-MYO-INOSITOL]", "values": [{"measurement": "IC50", "setting": "[2]", "value": "> 100", "unit": "µM"}]}, {"smiles": "CCCCCCCCSP(=O)(O)O[C@@H]1[C@H](O)[C@H](O)[C@@H](O)[C@H](O)[C@H]1O", "note": "(relative stereo) [Example 5.3, 1-O-(OCTYLPHOSPHOTHIOLYL)-MYO-INOSITOL]", "values": [{"measurement": "IC50", "setting": "[2]", "value": "> 100", "unit": "µM"}]}]}
